# ChEMBL document CHEMBL1156994, “Chemopreventive activities of etodolac and oxyphenbutazone against mouse skin carcinogenesis” (Bioorg Med Chem Lett, 2010)
# Columns and labels:
# Mus musculus [1] = test: Toxicity in ICR mouse at 0.0025%, po; assay type: organism-based; details: in vivo
# Mus musculus [2] = test: Inhibition of DMBA-induced/TPA-promoted skin carcinogenesis in ICR mouse assessed as reduction in tumor burden at 0.0025% topically applied qd treated one week before DMBA-TPA challenge after 20 weeks relative to control; assay type: functional
# Mus musculus [3] = test: Inhibition of peroxynitrite-induced/TPA promoted skin carcinogenesis in HOS-HR-1 mouse assessed as decrease in tumor incidence at 0.0025%, po treated one week before peroxynitrite-TPA challenge after 20 weeks relative to control; assay type: functional
# Mus musculus [4] = test: Inhibition of peroxynitrite-induced/TPA promoted skin carcinogenesis in HOS-HR-1 mouse assessed as decrease in tumor burdon at 0.0025%, po treated one week before peroxynitrite-TPA challenge after 20 weeks relative to control; assay type: functional
# Mus musculus [5] = test: Inhibition of peroxynitrite-induced/TPA promoted skin carcinogenesis in HOS-HR-1 mouse assessed as increase in tumor latency period at 0.0025%, po treated one week before peroxynitrite-TPA challenge after 20 weeks relative to control; assay type: functional
# Mus musculus [6] = test: Toxicity in HOS-HR-1 mouse at 0.0025%, po; assay type: organism-based; details: in vivo
smiles,measurement,setting,value
CCc1cccc2c3c([nH]c12)C(CC)(CC(=O)O)OCC3 (stereo unspecified) [ETODOLAC],Activity,Mus musculus [1],Non-toxic
same,inhibition (INH),Mus musculus [2],40%
CCCCC1C(=O)N(c2ccccc2)N(c2ccc(O)cc2)C1=O (stereo unspecified) [OXYPHENBUTAZONE ANHYDROUS],inhibition (INH),Mus musculus [3],>20%
same,inhibition (INH),Mus musculus [4],>50%
same,inhibition (INH),Mus musculus [5],29%
same,Activity,Mus musculus [6],Non-toxic
